According to publication PMC5218480 (PLoS ONE, 2017):

Tested on: MV-4-11 cells
Assay: Gene expression microarray analysis (Affymetrix PrimeView) and GSEA
Assay type: cell-based, human
Parameters: RFU PODN (11730768_x_at) / Fold change /veh PODN (11730768_x_at) / RFU LINC00158 (11744669_a_at) / Fold change /veh LINC00158 (11744669_a_at) / RFU DUSP10 (11751237_a_at) / Fold change /veh DUSP10 (11751237_a_at) / RFU ID3 (11757404_x_at) / Fold change /veh ID3 (11757404_x_at) / RFU PLEKHG5 (11737974_s_at) / Fold change /veh PLEKHG5 (11737974_s_at) / RFU LRRC4B (11730491_at) / Fold change /veh LRRC4B (11730491_at) / RFU GIMAP4 (11747438_a_at) / Fold change /veh GIMAP4 (11747438_a_at) / RFU KRT8 (11758183_x_at) / Fold change /veh KRT8 (11758183_x_at) / RFU CNN1 (11734310_a_at) / Fold change /veh CNN1 (11734310_a_at) / RFU VPS37D (11726825_at) / Fold change /veh VPS37D (11726825_at) / RFU C10orf10 (11716522_x_at) / Fold change /veh C10orf10 (11716522_x_at) / RFU KIR2DL2 /// KIR2DL4 /// KIR2DL5A /// KIR2DL5B /// KIR2DS1 /// KIR2DS2 /// KIR2DS3 /// KIR2DS4 /// KIR3DL3 /// KIR3DL3 /// KIR3DS1 (11738374_at) / Fold change /veh KIR2DL2 /// KIR2DL4 /// KIR2DL5A /// KIR2DL5B /// KIR2DS1 /// KIR2DS2 /// KIR2DS3 /// KIR2DS4 /// KIR3DL3 /// KIR3DL3 /// KIR3DS1 (11738374_at) / RFU C1QL1 (11718748_at) / Fold change /veh C1QL1 (11718748_at) / RFU TMPRSS4 (11747572_a_at) / Fold change /veh TMPRSS4 (11747572_a_at) / RFU HAMP (11756126_x_at) / Fold change /veh HAMP (11756126_x_at) / RFU RNFT2 (11725882_a_at) / Fold change /veh RNFT2 (11725882_a_at) / RFU NR4A2 (11747474_a_at) / Fold change /veh NR4A2 (11747474_a_at) / RFU ABCC12 (11746883_a_at) / Fold change /veh ABCC12 (11746883_a_at) / RFU TMEM136 (11760407_x_at) / Fold change /veh TMEM136 (11760407_x_at) / RFU CLDN22 /// WWC2 (11732394_at) / Fold change /veh CLDN22 /// WWC2 (11732394_at) / RFU HLA-DPB1 (11760878_x_at) / Fold change /veh HLA-DPB1 (11760878_x_at) / RFU SPINT1 (11716480_a_at) / Fold change /veh SPINT1 (11716480_a_at) / RFU GAP43 (11754022_s_at) / Fold change /veh GAP43 (11754022_s_at) / RFU A4GNT (11735810_at) / Fold change /veh A4GNT (11735810_at) / RFU PRB3 (11715151_x_at) / Fold change /veh PRB3 (11715151_x_at) / RFU TUBB4B (11761932_at) / Fold change /veh TUBB4B (11761932_at) / RFU CAPN14 (11732068_a_at) / Fold change /veh CAPN14 (11732068_a_at) / RFU TMCC2 (11721928_a_at) / Fold change /veh TMCC2 (11721928_a_at) / RFU IRGQ (11745062_a_at) / Fold change /veh IRGQ (11745062_a_at) / RFU FAM174B (11720279_a_at) / Fold change /veh FAM174B (11720279_a_at) / RFU TMPRSS4 (11748680_a_at) / Fold change /veh TMPRSS4 (11748680_a_at) / RFU FAM212B (11763350_a_at) / Fold change /veh FAM212B (11763350_a_at) / RFU PLEKHG5 (11743358_a_at) / Fold change /veh PLEKHG5 (11743358_a_at) / RFU ZSCAN30 (11745921_a_at) / Fold change /veh ZSCAN30 (11745921_a_at) / RFU CMKLR1 (11741424_a_at) / Fold change /veh CMKLR1 (11741424_a_at) / RFU LOC101060620 /// MAPK8IP1 (11723275_at) / Fold change /veh LOC101060620 /// MAPK8IP1 (11723275_at) / RFU SPTSSB (11747773_x_at) / Fold change /veh SPTSSB (11747773_x_at) / RFU PRSS12 (11739890_at) / Fold change /veh PRSS12 (11739890_at) / RFU BIN1 (11741810_x_at) / Fold change /veh BIN1 (11741810_x_at) / RFU WNT11 (11732464_a_at) / Fold change /veh WNT11 (11732464_a_at) / RFU C10orf10 (11716521_a_at) / Fold change /veh C10orf10 (11716521_a_at) / RFU C5orf56 (11738089_at) / Fold change /veh C5orf56 (11738089_at) / RFU CYB561 (11721691_x_at) / Fold change /veh CYB561 (11721691_x_at) / RFU ANKRD19P (11752326_a_at) / Fold change /veh ANKRD19P (11752326_a_at) / RFU OR2T12 /// OR2T33 /// OR2T8 (11738714_s_at) / Fold change /veh OR2T12 /// OR2T33 /// OR2T8 (11738714_s_at) / RFU VCAN (11748164_a_at) / Fold change /veh VCAN (11748164_a_at) / RFU JSRP1 (11732532_at) / Fold change /veh JSRP1 (11732532_at) / RFU KRTAP10-11 (11738290_x_at) / Fold change /veh KRTAP10-11 (11738290_x_at) / RFU MYO3A (11730013_a_at) / Fold change /veh MYO3A (11730013_a_at) / RFU EBF3 (11725865_a_at) / Fold change /veh EBF3 (11725865_a_at) / RFU CAMK2N1 (11719241_x_at) / Fold change /veh CAMK2N1 (11719241_x_at) / RFU C5orf56 (11738088_a_at) / Fold change /veh C5orf56 (11738088_a_at) / RFU OLFML3 (11715873_a_at) / Fold change /veh OLFML3 (11715873_a_at) / RFU LOC100653217 /// NTM (11731650_a_at) / Fold change /veh LOC100653217 /// NTM (11731650_a_at) / RFU MAPK11 (11762145_a_at) / Fold change /veh MAPK11 (11762145_a_at) / RFU FIZ1 (11724087_x_at) / Fold change /veh FIZ1 (11724087_x_at) / RFU OASL (11726364_x_at) / Fold change /veh OASL (11726364_x_at) / RFU SOX15 (11748057_x_at) / Fold change /veh SOX15 (11748057_x_at) / RFU CD79A (11719716_a_at) / Fold change /veh CD79A (11719716_a_at) / RFU HIST1H1D (11736915_at) / Fold change /veh HIST1H1D (11736915_at) / RFU CASKIN2 (11723855_a_at) / Fold change /veh CASKIN2 (11723855_a_at) / RFU LOC730098 (11760151_x_at) / Fold change /veh LOC730098 (11760151_x_at) / RFU OR4N2 (11742367_at) / Fold change /veh OR4N2 (11742367_at) / RFU PRRT2 (11749266_a_at) / Fold change /veh PRRT2 (11749266_a_at) / RFU SNX32 (11753110_a_at) / Fold change /veh SNX32 (11753110_a_at) / RFU CDHR5 (11726645_a_at) / Fold change /veh CDHR5 (11726645_a_at) / RFU RCAN1 (11760418_a_at) / Fold change /veh RCAN1 (11760418_a_at) / RFU FAM167A (11723789_a_at) / Fold change /veh FAM167A (11723789_a_at) / RFU FAM26E (11764081_at) / Fold change /veh FAM26E (11764081_at) / RFU ISYNA1 (11749810_s_at) / Fold change /veh ISYNA1 (11749810_s_at) / RFU ACY1 (11761880_at) / Fold change /veh ACY1 (11761880_at) / RFU 11764098_at / Fold change /veh 11764098_at / RFU SAMD14 (11745864_x_at) / Fold change /veh SAMD14 (11745864_x_at) / RFU NPB (11741838_a_at) / Fold change /veh NPB (11741838_a_at) / RFU TMPRSS6 (11731388_a_at) / Fold change /veh TMPRSS6 (11731388_a_at) / RFU KRTAP10-2 (11738614_at) / Fold change /veh KRTAP10-2 (11738614_at) / RFU ARHGAP8 /// PRR5-ARHGAP8 (11727945_x_at) / Fold change /veh ARHGAP8 /// PRR5-ARHGAP8 (11727945_x_at) / RFU KRTAP5-7 /// NADSYN1 (11734609_at) / Fold change /veh KRTAP5-7 /// NADSYN1 (11734609_at) / RFU RASL12 (11751679_a_at) / Fold change /veh RASL12 (11751679_a_at) / RFU CDKN2B (11736163_a_at) / Fold change /veh CDKN2B (11736163_a_at) / RFU PRF1 (11729649_at) / Fold change /veh PRF1 (11729649_at) / RFU, ZNF638 /// ZNF638-IT1 / Fold change vs veh, ZNF638 /// ZNF638-IT1 / RFU, PANK3 / Fold change vs veh, PANK3 / RFU, SH3YL1 / Fold change vs veh, SH3YL1 / RFU, ZEB2 / Fold change vs veh, ZEB2 / RFU, NRIP1 / Fold change vs veh, NRIP1 / RFU, PTTG1IP / Fold change vs veh, PTTG1IP / RFU, CAPN2 / Fold change vs veh, CAPN2 / RFU, MED14 / Fold change vs veh, MED14 / RFU, SNORA58 / Fold change vs veh, SNORA58 / RFU, C1orf63 / Fold change vs veh, C1orf63 / RFU, LRRFIP1 / Fold change vs veh, LRRFIP1 / RFU, NDUFAF7 / Fold change vs veh, NDUFAF7 / RFU, SLC12A2 / Fold change vs veh, SLC12A2 / RFU, IBTK / Fold change vs veh, IBTK / RFU, ESF1 / Fold change vs veh, ESF1 / Fold change vs veh, TMEM50B / RFU, TAOK1 / Fold change vs veh, TAOK1 / RFU, ACBD3 / Fold change vs veh, ACBD3 / RFU, TMA16 / Fold change vs veh, TMA16 / RFU, RWDD3 / Fold change vs veh, RWDD3 / RFU, BCAT1 / Fold change vs veh, BCAT1 / RFU, EDEM3 / Fold change vs veh, EDEM3 / RFU, TMEM33 / Fold change vs veh, TMEM33 / RFU, WDR75 / Fold change vs veh, WDR75 / RFU, AHCTF1 / Fold change vs veh, AHCTF1 / RFU, TFRC / Fold change vs veh, TFRC / RFU, ZDHHC17 / Fold change vs veh, ZDHHC17 / RFU, NOM1 / Fold change vs veh, NOM1 / RFU, ARL8B / Fold change vs veh, ARL8B / RFU, ZBTB11 / Fold change vs veh, ZBTB11 / RFU, TAMM41 / Fold change vs veh, TAMM41 / RFU, KIAA1704 /// LOC100996395 / Fold change vs veh, KIAA1704 /// LOC100996395 / RFU, ING1 / Fold change vs veh, ING1 / RFU, TRMT61B / Fold change vs veh, TRMT61B / RFU, FUBP3 / Fold change vs veh, FUBP3 / RFU, TP53 / Fold change vs veh, TP53 / RFU, TNKS2 / Fold change vs veh, TNKS2 / RFU, ZFP14 / Fold change vs veh, ZFP14 / RFU, ACTR2 / Fold change vs veh, ACTR2 / RFU, PPP3R1 / Fold change vs veh, PPP3R1 / RFU, PIK3R1 / Fold change vs veh, PIK3R1 / RFU, HNRNPA1 / Fold change vs veh, HNRNPA1 / RFU, RNF170 / Fold change vs veh, RNF170 / RFU, ZNF28 / Fold change vs veh, ZNF28 / RFU, RNGTT / Fold change vs veh, RNGTT / RFU, OGT / Fold change vs veh, OGT / RFU, BRD1 / Fold change vs veh, BRD1 / RFU, MARS / Fold change vs veh, MARS / RFU, ZNF655 / Fold change vs veh, ZNF655 / RFU, FAHD1 / Fold change vs veh, FAHD1 / RFU, BDP1 / Fold change vs veh, BDP1 / RFU, LRRCC1 / Fold change vs veh, LRRCC1 / RFU, ARID1A / Fold change vs veh, ARID1A / RFU, ZNF146 / Fold change vs veh, ZNF146 / RFU, ZNF330 / Fold change vs veh, ZNF330 / RFU, GPN3 / Fold change vs veh, GPN3 / RFU, C9orf123 / Fold change vs veh, C9orf123 / RFU, N4BP2L2 / Fold change vs veh, N4BP2L2 / RFU, ARFIP1 / Fold change vs veh, ARFIP1 / RFU, FAM179B / Fold change vs veh, FAM179B / RFU, BCL10 / Fold change vs veh, BCL10 / RFU, UHRF1BP1L / Fold change vs veh, UHRF1BP1L / RFU, BET1 / Fold change vs veh, BET1 / RFU, CNOT2 / Fold change vs veh, CNOT2 / RFU, ZNF268 / Fold change vs veh, ZNF268 / Fold change vs veh, ZNF507 / RFU, DGCR2 / Fold change vs veh, DGCR2 / RFU, WDSUB1 / Fold change vs veh, WDSUB1 / Fold change vs veh, HSP90B1 /// MIR3652 / RFU, ADSS / Fold change vs veh, ADSS / RFU, GK / Fold change vs veh, GK / RFU, ZNF148 / Fold change vs veh, ZNF148 / RFU, TAF9 / Fold change vs veh, TAF9 / RFU, SLC1A5 / Fold change vs veh, SLC1A5 / RFU, SLMO2 / Fold change vs veh, SLMO2 / RFU, ABCC4 / Fold change vs veh, ABCC4 / RFU, LOC101060439 /// RAP1B / Fold change vs veh, LOC101060439 /// RAP1B / RFU, RFX7 / Fold change vs veh, RFX7 / RFU, GTPBP10 / Fold change vs veh, GTPBP10 / RFU, CNEP1R1 / Fold change vs veh, CNEP1R1 / RFU, BIVM-ERCC5 /// ERCC5 / Fold change vs veh, BIVM-ERCC5 /// ERCC5 / RFU, ILF3 / Fold change vs veh, ILF3 / RFU 11762660_at / Fold change /veh 11762660_at / RFU VCAN (11757783_s_at) / Fold change /veh VCAN (11757783_s_at) / RFU DDX43 (11728927_at) / Fold change /veh DDX43 (11728927_at) / RFU KRT8 (11758188_x_at) / Fold change /veh KRT8 (11758188_x_at) / RFU NKD1 (11759106_at) / Fold change /veh NKD1 (11759106_at) / RFU SRD5A1 (11742802_a_at) / Fold change /veh SRD5A1 (11742802_a_at) / RFU TPSAB1 /// TPSB2 (11721975_s_at) / Fold change /veh TPSAB1 /// TPSB2 (11721975_s_at) / RFU GSTM3 (11746129_a_at) / Fold change /veh GSTM3 (11746129_a_at) / RFU IL23R (11737362_x_at) / Fold change /veh IL23R (11737362_x_at) / RFU TMEM51 (11727254_a_at) / Fold change /veh TMEM51 (11727254_a_at) / RFU PIWIL2 (11732686_x_at) / Fold change /veh PIWIL2 (11732686_x_at) / RFU ORM1 (11744905_x_at) / Fold change /veh ORM1 (11744905_x_at) / RFU CCDC152 (11743942_at) / Fold change /veh CCDC152 (11743942_at) / RFU ECM1 (11717891_a_at) / Fold change /veh ECM1 (11717891_a_at) / RFU IL23R (11748794_a_at) / Fold change /veh IL23R (11748794_a_at) / RFU TNFAIP8L3 (11732012_x_at) / Fold change /veh TNFAIP8L3 (11732012_x_at) / RFU MBOAT4 (11741988_at) / Fold change /veh MBOAT4 (11741988_at) / RFU 11764193_at / Fold change /veh 11764193_at / RFU TMEM53 (11763286_at) / Fold change /veh TMEM53 (11763286_at) / RFU MAGEB2 (11727129_at) / Fold change /veh MAGEB2 (11727129_at) / RFU TMEM200A (11744735_a_at) / Fold change /veh TMEM200A (11744735_a_at) / RFU CCDC152 (11751479_a_at) / Fold change /veh CCDC152 (11751479_a_at) / RFU FAM211A (11726209_a_at) / Fold change /veh FAM211A (11726209_a_at) / RFU RGS16 (11746705_a_at) / Fold change /veh RGS16 (11746705_a_at) / RFU VCAN (11755009_s_at) / Fold change /veh VCAN (11755009_s_at) / RFU RHOB (11743442_s_at) / Fold change /veh RHOB (11743442_s_at) / RFU RGS16 (11720943_a_at) / Fold change /veh RGS16 (11720943_a_at) / RFU RGS16 (11720944_at) / Fold change /veh RGS16 (11720944_at) / RFU, VPS4B / Fold change vs veh, VPS4B / RFU, CREB1 / Fold change vs veh, CREB1 / RFU, DNAJC13 / Fold change vs veh, DNAJC13 / RFU, GNAQ / Fold change vs veh, GNAQ / RFU, CDK5R1 / Fold change vs veh, CDK5R1 / RFU, ZRANB3 / Fold change vs veh, ZRANB3 / RFU, CUL4A / Fold change vs veh, CUL4A / RFU, CCNY / Fold change vs veh, CCNY / RFU, UFL1 / Fold change vs veh, UFL1 / RFU, COG3 / Fold change vs veh, COG3 / RFU, DIAPH2 / Fold change vs veh, DIAPH2 / RFU, SKA2 / Fold change vs veh, SKA2 / RFU, AFF3 / Fold change vs veh, AFF3 / RFU, LMF1 / Fold change vs veh, LMF1 / RFU, IPO11 / Fold change vs veh, IPO11 / RFU, DFFB / Fold change vs veh, DFFB / RFU, FOXP1 / Fold change vs veh, FOXP1 / RFU, CARD8 / Fold change vs veh, CARD8 / RFU, STRN3 / Fold change vs veh, STRN3 / RFU, ADK / Fold change vs veh, ADK / RFU, RASSF2 / Fold change vs veh, RASSF2 / RFU, WIPF1 / Fold change vs veh, WIPF1 / RFU, LARP1B / Fold change vs veh, LARP1B / RFU, RASA1 / Fold change vs veh, RASA1 / RFU, RB1 / Fold change vs veh, RB1 / RFU, PPFIA1 / Fold change vs veh, PPFIA1 / RFU, MAT2A / Fold change vs veh, MAT2A / RFU, CCT5 / Fold change vs veh, CCT5 / RFU, WDR92 / Fold change vs veh, WDR92 / RFU, CUX1 / Fold change vs veh, CUX1 / RFU, TTC7A / Fold change vs veh, TTC7A / RFU, TMEM135 / Fold change vs veh, TMEM135 / RFU, DEPTOR / Fold change vs veh, DEPTOR / RFU, CPM / Fold change vs veh, CPM / RFU, DNAJB6 / Fold change vs veh, DNAJB6 / RFU, CACNA2D3 / Fold change vs veh, CACNA2D3 / RFU, DTX4 / Fold change vs veh, DTX4 / RFU, TFCP2 / Fold change vs veh, TFCP2 / RFU, GMCL1 /// GMCL1P1 / Fold change vs veh, GMCL1 /// GMCL1P1 / RFU, AEBP2 / Fold change vs veh, AEBP2 / RFU, SNHG1 /// SNORD22 /// SNORD25 /// SNORD26 /// SNORD27 /// SNORD28 /// SNORD29 /// SNORD31 / Fold change vs veh, SNHG1 /// SNORD22 /// SNORD25 /// SNORD26 /// SNORD27 /// SNORD28 /// SNORD29 /// SNORD31 / Fold change (Aza/veh), C12orf56 (ProbeSet 11735607_a_at) / Fold change (ACY-1035/veh), C12orf56 (ProbeSet 11735607_a_at) / Fold change (Aza/veh), FGFR1OP (ProbeSet 11751329_s_at) / Fold change (ACY-1035/veh), FGFR1OP (ProbeSet 11751329_s_at) / Fold change (Aza/veh), VPS36 (ProbeSet 11739960_a_at) / Fold change (ACY-1035/veh), VPS36 (ProbeSet 11739960_a_at) / RFU SYPL1 (11715823_x_at) / Fold change /veh SYPL1 (11715823_x_at) / RFU IGFBP7 (11715501_s_at) / Fold change /veh IGFBP7 (11715501_s_at) / RFU REEP3 (11722064_at) / Fold change /veh REEP3 (11722064_at) / RFU IGLL1 (11728026_x_at) / Fold change /veh IGLL1 (11728026_x_at): dose or concentration left out as unconfirmed
Details: MV-4-11 cells, 48 hours

For `Nc1ccc(-c2cccs2)cc1NC(=O)c1ccc2c(c1)cc(C1CC1)n2CCN1CCOCC1` [ACY-1035], which “RFU TMPRSS6 (11731388_a_at)” value is on record?
Its value is 73.78 RFU.
